In publication PMC8762250, “Identification of Novel Chemical Scaffolds that Inhibit the Growth of Mycobacterium tuberculosis in Macrophages” (Frontiers in Pharmacology, 2022):
Like-named read-outs stand apart in the source and are kept apart here. Marks after values point to notes of the source that are not given here.

Experiments:
M. tuberculosis [1] = assay: High content assay of intracellular M. tuberculosis growth in infected RAW264.7 macrophages; assay type: cell-based, Mycobacterium tuberculosis H37Rv-LP
Procedure: Compounds were obtained in 384-well plates as 10 mM DMSO stock solutions and tested as described ([Manning et al., 2017]). Briefly, assay plates were prepared in clear bottom, black 384-well plates with 30 μl cRPMI and 0.6 μl compound in columns 3–22 (final concentration of 10 μM compound, 1% DMSO). […] INH and STA were also included in dose response on each plate. RAW264.7 cells were infected with M. tuberculosis DREAM8 as described ([Manning et al., 2017]) at an MOI of 1 for 24 h and extracellular bacteria removed by washing. Cells were recovered using Accumax, harvested, washed and resuspended in serum-free RPMI; 30 μl of infected cells were dispensed into each well at 3,300 cells/well. Plates were incubated for 72 h, 10 μl of 5X SYBR Green I was added and plates were imaged with an ImageXpress Micro High Content Screening System (Molecular Devices) using a ×4 objective and FITC and Texas Red channels. MetaXpress was used to analyze images. The integrated intensity of M. tuberculosis or macrophages was calculated for each well. Growth inhibition was calculated for each test well by normalizing to the average integrated intensity of the DMSO control wells. IC50 was calculated as the compound concentration required to reduce bacterial growth by 50%. TC50 was calculated as the compound concentration required to reduce macrophage viability by 50%.

RAW264.7 cells = assay: Macrophage viability in the same high content assay; conditions: for Intracellular RAW TC50 / Intracellular activity Cytotoxicity TC50: infected RAW264.7 macrophages; for Intracellular RAW TC50: SAR tables 4-8; for Intracellular activity Cytotoxicity TC50: 72 h
[2] = HepG2 cytotoxicity (CellTiter-Glo, 72 h); assay type: cell-based, human; conditions: human
Procedure: (§1) Cytotoxicity against HepG2 cells was measured after 72 h. Cells were seeded in 384-well plates at 1,800 cells per well. Compounds were added as a 10-point three-fold serial dilution after 24 h (final assay concentration of 1% DMSO). CellTiter-Glo® reagent (Promega) was added and relative luminescence units (RLU) measured. Data were normalized to the DMSO controls. Curves were fitted using the Levenberg–Marquardt algorithm; TC50 was calculated as the compound concentration required to reduce cell viability by 50%.
(§2) We further evaluated cytotoxicity using the HepG2 cell line cultured with either glucose or galactose in the medium (Table 2). HepG2 cells cultured with galactose rely on mitochondrial oxidative phosphorylation rather than glycolysis which increases their susceptibility to mitochondrial toxicants allowing us to identify compounds with mitochondrial toxicity ([Kamalian et al., 2015]).

M. tuberculosis [3] = assay: Minimum inhibitory concentration in liquid medium (axenic culture); assay type: cell-based, Mycobacterium tuberculosis; conditions: Mycobacterium tuberculosis; for IC50: read-out: Anti-tubercular activity in axenic culture IC50
HepG2 cells = assay: HepG2 cytotoxicity (CellTiter-Glo, 72 h); assay type: cell-based, human; conditions: for HepG2 cytotoxicity TC50 Galactose / HepG2 cytotoxicity TC50 Glucose: human, 72 h
Procedure: as §1, §2

[4] = Mycobacterium tuberculosis, RAW264.7, in RAW264.7 macrophages, SAR tables 4-8, read-out: Intracellular Mtb IC50
[5] = HepG2 cytotoxicity IC50 Galactose
[6] = HepG2 cytotoxicity IC50 Glucose
[7] = axenic culture, SAR tables 4-8, read-out: Extracellular IC90
[8] = Mycobacterium tuberculosis, RAW264.7, 72 h, M. tuberculosis in RAW264.7 cells, MOI 1, 72 h, read-out: Intracellular activity Anti-tubercular activity IC50
[9] = 120 h, extracellular, 5 days, OD590
[10] = 120 h, extracellular, 5 days, OD590, read-out: Anti-tubercular activity in axenic culture IC90

Row | Structure (SMILES) | activity against intracellular M. tuberculosis (M. tuberculosis [1]) | IC50 (M. tuberculosis [1]; [4]) [µM] | Intracellular RAW TC50 (RAW264.7 cells) | IC50 at 72 h [2, 5] [µM] | IC50 at 72 h [2, 6] [µM] | IC90 (M. tuberculosis [3]; [7]) [µM] | IC50 (M. tuberculosis [1]; [8]) [µM] | Intracellular activity Cytotoxicity TC50 (RAW264.7 cells) | HepG2 cytotoxicity TC50 Galactose (HepG2 cells) | HepG2 cytotoxicity TC50 Glucose (HepG2 cells) | IC50 (M. tuberculosis [3]; [9]) [µM] | IC90 (M. tuberculosis [3]; [10]) [µM] | selectivity index (TC50/IC50) (RAW264.7 cells; macrophage TC50 / intracellular IC50) | IC50 (M. tuberculosis [1]; in RAW264.7 macrophages, SAR tables 4-8, read-out: Intracellular Mtb IC50) [µM] | IC50 (M. tuberculosis [1]; Mycobacterium tuberculosis, RAW264.7, read-out: Intracellular Mtb IC50, in RAW264.7 macrophages, SAR tables 4-8) [µM] | Intracellular RAW TC50 (RAW264.7 cells; listed as 17) [µM] | ratio of TC50glu/TC50gal (HepG2 cells; HepG2, glucose vs galactose)
1 | O=C(CSc1ccccn1)Nc1ccc(F)c(F)c1 [TPN-0006203] | good intracellular activity | 7.8 ± 1.6 | >100 ^b µM | > 100 | > 100 | > 20 | – | – | – | – | – | – | – | – | – | – | –
2 | CCc1ccc(OCC(=O)Nc2cccc3c2C(=O)OC3)cc1 [TPN-0006204] | – | 10 ± 0.5 | >100 ^a µM | 47 ± 17 | 59 ± 10 | > 20 | 11 ± 0.5 | >100 ^b µM | 47 ± 17 ^e µM | 59 ± 10 ^d µM | > 20 | > 20 | – | – | – | – | –
3 | O=C(CSc1ccccc1)Nc1ccc(Br)cc1 [TPN-0006205] | good intracellular activity | 1.4 ± 0.6 | 57 ± 24 ^c µM | > 100 | > 100 | > 20 | 1.4 ± 0.64 | 57 ± 23 ^c µM | >100 ^c µM | >100 ^e µM | > 20 | > 20 | 40 | – | – | – | –
4 | Cc1ccc(OCC(=O)Nc2ccc(N3CCCCC3)c(Cl)c2)cc1 [TPN-0006206] | – | – | 57 ± 20 ^c µM | > 100 | > 100 | > 20 | – | 57 ± 20 ^b µM | >100 ^b µM | >100 ^b µM | > 20 | > 20 | – | – | – | – | –
5 | O=C(COc1ccc(Cl)cc1)Nc1ccc(N2CCCCC2)c(Cl)c1 [TPN-0006209] | – | – | 68 ± 0.5 ^b µM | > 100 | > 100 | > 20 | – | 68 ± 0.50 ^b µM | >100 ^b µM | >100 ^b µM | > 20 | > 20 | – | – | – | – | –
6 | O=C(COc1ccc2ccccc2c1)Nc1ccncc1 [TPN-0006212] | – | 8.2 ± 1.7 | >100 ^b µM | 61 ± 4 | > 100 | > 20 | – | – | – | – | – | – | – | – | – | – | –
7 | Cc1cc(OCC(=O)N2CCC(C)CC2)ccc1Br [TPN-0006213] | – | 6.6 ± 1.6 | 75 ± 16 ^b µM | 55 ± 5 | 93 ± 3.5 | > 20 | – | – | – | – | – | – | – | – | – | – | –
8 | O=C(COc1ccc(Br)cc1)N1CCN(c2ccccc2F)CC1 [TPN-0006215] | – | 12 ± 1.6 | 60 ± 27 ^b µM | 57 ± 3 | 96 ± 2.5 | > 20 | – | – | – | – | – | – | – | – | – | – | –
9 | COCc1cc(C)nc2sc(C(=O)Nc3cccc(Cl)c3)c(N)c12 [TPN-0073022] | not active | > 100 | 15 ± 9 ^b µM | 64 | 51 | > 20 | – | – | – | – | – | – | – | – | – | – | –
10 | COCc1cc(C)nc2sc(C(=O)c3ccccc3)c(N)c12 [TPN-0073023] | – | 17 ± 6.5 | 67 ± 18 ^d µM | 49 | 68 ± 1 | > 20 | – | – | – | – | – | – | – | – | – | – | –
11 | Nc1c(C(=O)N2CCCCC2)sc2nc3c(cc12)CCCC3 [TPN-0073024] | – | 62 ± 31 | >100 ^b µM | > 100 | > 100 | > 20 | – | – | – | – | – | – | – | – | – | – | –
12 | CCN(CC)C(=O)c1sc2nc(-c3ccccc3)ccc2c1N [TPN-0073025] | weak activity | < 10 | 30 ± 6.6 ^f µM | 42 | 61 ± 48 | > 20 | – | – | – | – | – | – | – | 9 ± 6.6 | – | – | –
13 | Nc1c(C(=O)c2ccc(F)cc2)sc2nc(-c3ccccc3)cc(-c3ccccc3)c12 [TPN-0073026] | not active | > 100 | >100 ^a µM | > 100 | > 100 | > 20 | – | – | – | – | – | – | – | – | – | – | –
14 | Nc1c(C(=O)Nc2nccs2)sc2nc3c(cc12)CCC3 [TPN-0073030] | – | – | >100 ^c µM | > 100 | > 100 | > 20 | – | – | – | – | – | – | – | – | 1.1 | – | –
15 | O=C(Nc1ccc(C(F)(F)F)cc1)Nc1cccc(Cl)c1 [TPN-0073070] | – | 0.7 ± 0.2 | 1.8 ± 0.5 ^b µM | 5.5 | 5.6 | 15 | – | – | – | – | – | – | – | – | – | 1.8 | –
16 | Cc1sc(NC(=O)c2ccc(OC(C)C)cc2)c(C(N)=O)c1C [TPN-0073559] | – | – | 50 ± 24 ^d µM | 41 ± 11 | 49 ± 8.5 | > 20 | – | 50 ± 24 ^d µM | 41 ± 11 ^c µM | 49 ± 8.5 ^c µM | > 20 | > 20 | – | – | – | – | –
17 | Cc1c(Cc2ccccc2)sc(NC(=O)c2ccccc2Cl)c1C(N)=O [TPN-0073560] | – | – | 23 ± 4.7 ^d µM | 42 ± 3.3 | > 100 | > 20 | – | 23 ± 4.7 ^d µM | 42 ± 3.3 ^c µM | >100 ^b µM | > 20 | > 20 | – | – | – | – | ~4
18 | OCc1cn(-c2ccccc2)nc1-c1ccc(Br)cc1 [TPN-0073563] | – | 4.3 ± 1.5 | 28 ± 7.0 ^e µM | 35 ± 3.7 | 34 | – | 4.7 ± 1.1 | 28 ± 7.0 ^e µM | 34 ± 1.9 ^c µM | 34 ± 0 ^c µM | – | – | – | – | – | – | –
19 | OCc1cn(-c2ccc(F)cc2)nc1-c1ccc(Cl)cc1 [TPN-0073583] | – | 5.8 ± 0.4 | >100 ^d µM | 57 ± 28 | 66 ± 29 | > 20 | – | – | – | – | – | – | – | – | – | – | –
